≈ marks a conversion by molar mass, not a printed value.
What was measured:
[1] = test system: Mycobacterium tuberculosis; assay: Antitubercular activity against dormant Mycobacterium tuberculosis H37Ra by XTT reduction menadione assay; type: functional, organism-based
[2] = Cytotoxicity against human A549 cells at 10 ug/mL by MTT assay; type: cell-based; conditions: read-out: INH
Escherichia coli = assay: Antibacterial activity against Escherichia coli after 18 hrs by broth dilution method; type: functional, organism-based
[3] = test system: Mycobacterium tuberculosis; assay: Antitubercular activity against dormant Mycobacterium tuberculosis H37Ra assessed as growth inhibition at 30 ug/mL by XTT reduction menadione assay; type: functional; conditions: read-out: GI
Bacillus subtilis = assay: Antibacterial activity against Bacillus subtilis after 18 hrs by broth dilution method; type: functional, organism-based
Staphylococcus aureus = assay: Antibacterial activity against Staphylococcus aureus after 18 hrs by broth dilution method; type: functional, organism-based
[4] = Cytotoxicity against human HCT116 cells after 48 and 72 hrs by MTT assay; type: cell-based, HCT-116; conditions: for GI50 at 72 h: HCT116 cells; for GI90: hct-116, 72 h
[5] = Cytotoxicity against human A549 cells at 30 ug/mL by MTT assay; type: cell-based; conditions: read-out: INH
Pseudomonas = assay: Antibacterial activity against Pseudomonas after 18 hrs by broth dilution method; type: functional, organism-based
[6] = test system: Mycobacterium bovis BCG str. ATCC 35743; assay: Antitubercular activity against dormant Mycobacterium bovis BCG ATCC 35743 assessed as growth inhibition at 10 ug/mL by NR assay; type: functional
[7] = (§1) Antitubercular activity against dormant Mycobacterium bovis BCG ATCC 35743 by NR assay; type: functional, Mycobacterium bovis BCG str. ATCC 35743
[8] = test system: Mycobacterium bovis BCG str. ATCC 35743; assay: as §1; type: functional
[9] = (§2) Cytotoxicity against human A549 cells after 48 and 72 hrs by MTT assay; type: cell-based; conditions: A549 cells
A549 = assay: as §2; type: cell-based; conditions: a549, 72 h
[10] = test system: Mycobacterium bovis BCG str. ATCC 35743; assay: Antitubercular activity against dormant Mycobacterium bovis BCG ATCC 35743 assessed as growth inhibition at 30 ug/mL by NR assay; type: functional
[11] = (§3) Cytotoxicity against human MCF7 cells after 48 and 72 hrs by MTT assay; type: cell-based; conditions: MCF7 cells
MCF7 = assay: as §3; type: cell-based; conditions: mcf7, 72 h
[12] = test system: Mycobacterium bovis BCG str. ATCC 35743; assay: Antitubercular activity against dormant Mycobacterium bovis BCG ATCC 35743 assessed as growth inhibition at 3 ug/mL by NR assay; type: functional
[13] = test system: Mycobacterium tuberculosis; assay: Antitubercular activity against dormant Mycobacterium tuberculosis H37Ra assessed as growth inhibition at 10 ug/mL by XTT reduction menadione assay; type: functional; conditions: read-out: GI
[14] = test system: Mycobacterium tuberculosis; assay: Antitubercular activity against dormant Mycobacterium tuberculosis H37Ra assessed as growth inhibition at 3 ug/mL by XTT reduction menadione assay; type: functional; conditions: read-out: GI
[15] = Cytotoxicity against human MCF7 cells at 30 ug/mL by MTT assay; type: cell-based; conditions: read-out: INH
[16] = Cytotoxicity against human MCF7 cells at 3 ug/mL by MTT assay; type: cell-based; conditions: read-out: INH
[17] = Cytotoxicity against human MCF7 cells at 10 ug/mL by MTT assay; type: cell-based; conditions: read-out: INH
[18] = Cytotoxicity against human HCT116 cells at 10 ug/mL by MTT assay; type: cell-based, HCT-116; conditions: read-out: INH
[19] = Cytotoxicity against human HCT116 cells at 3 ug/mL by MTT assay; type: cell-based, HCT-116; conditions: read-out: INH
[20] = Cytotoxicity against human A549 cells at 3 ug/mL by MTT assay; type: cell-based; conditions: read-out: INH
[21] = Cytotoxicity against human HCT116 cells at 30 ug/mL by MTT assay; type: cell-based, HCT-116; conditions: read-out: INH

SMILES | IC50 [1] [µg/mL] | IC90 [1] [µg/mL] | cytotoxicity at 10 ug/mL [2] [%] | inhibition of growth at 30 µg/mL [3] [%] | GI50 at 72 h [4] [µg/mL] | GI90 [4] [µg/mL] | cytotoxicity at 30 ug/mL [5] [%] | growth inhibition (GI) [6] [%] | IC50 [7] [µg/mL] | IC90 [8] [µg/mL] | GI50 at 72 h [9] [µg/mL] | GI90 (A549) [µg/mL] | growth inhibition (GI) [10] [%] | GI50 at 72 h [11] [µg/mL] | GI90 (MCF7) [µg/mL] | growth inhibition (GI) [12] [%] | inhibition of growth at 10 µg/mL [13] [%] | inhibition of growth at 3 µg/mL [14] [%] | cytotoxicity at 30 ug/mL [15] [%] | cytotoxicity at 3 ug/mL [16] [%] | further results
Cc1ccc(C2SCC(=O)N2c2ccc(F)cc2)cc1 (stereo unspecified) | 29.8 (≈ 104 µM) | > 30 | 0 | 51.3 | > 100 | > 100 | -11.4 | -4 | > 30 | > 30 | > 100 | > 100 | -3.9 | > 100 | > 100 | -3 | -37 | 10.9 | 37.5 | 22.3 | IC50 (Escherichia coli): > 30 µg/mL; MIC (Escherichia coli): > 30 µg/mL; IC50 (Bacillus subtilis): > 30 µg/mL; MIC (Bacillus subtilis): > 30 µg/mL; IC50 (Staphylococcus aureus): > 30 µg/mL; MIC (Staphylococcus aureus): > 30 µg/mL; IC50 (Pseudomonas): > 30 µg/mL; MIC (Pseudomonas): > 30 µg/mL; cytotoxicity at 10 ug/mL [17]: 37.7%; cytotoxicity at 10 ug/mL [18]: 9.1%; cytotoxicity at 3 ug/mL [19]: 1.1%; cytotoxicity at 3 ug/mL [20]: 0%; cytotoxicity at 30 ug/mL [21]: 29.6%
COc1ccc(C2SCC(=O)N2c2ccccc2)cc1 (stereo unspecified) | 4.2 (≈ 14.7 µM) | > 30 | 0 | 83.3 | > 100 | > 100 | -4.3 | 56.1 | 8.7 (≈ 30.5 µM) | > 30 | > 100 | > 100 | 85.9 | > 100 | > 100 | 23.2 | 74.1 | 45.1 | 18.3 | -2.6 | IC50 (Escherichia coli): > 30 µg/mL; MIC (Escherichia coli): > 30 µg/mL; IC50 (Bacillus subtilis): > 30 µg/mL; MIC (Bacillus subtilis): > 30 µg/mL; IC50 (Staphylococcus aureus): > 30 µg/mL; MIC (Staphylococcus aureus): > 30 µg/mL; IC50 (Pseudomonas): > 30 µg/mL; MIC (Pseudomonas): > 30 µg/mL; cytotoxicity at 10 ug/mL [17]: 12.6%; cytotoxicity at 10 ug/mL [18]: 7.2%; cytotoxicity at 3 ug/mL [19]: -5.4%; cytotoxicity at 3 ug/mL [20]: 0%; cytotoxicity at 30 ug/mL [21]: 8.4%
O=C1CSC(c2ccc(Br)cc2)N1c1ccccc1 (stereo unspecified) | 8.9 (≈ 26.6 µM) | 25.2 (≈ 75.4 µM) | 0 | 97.7 | > 100 | > 100 | 0 | 44.4 | > 30 | > 30 | > 100 | > 100 | 48.8 | > 100 | > 100 | 48.7 | 66.4 | -33.2 | 32.8 | 22.1 | IC50 (Escherichia coli): > 30 µg/mL; MIC (Escherichia coli): > 30 µg/mL; IC50 (Bacillus subtilis): > 30 µg/mL; MIC (Bacillus subtilis): > 30 µg/mL; IC50 (Staphylococcus aureus): > 30 µg/mL; MIC (Staphylococcus aureus): > 30 µg/mL; IC50 (Pseudomonas): > 30 µg/mL; MIC (Pseudomonas): > 30 µg/mL; cytotoxicity at 10 ug/mL [17]: 23.8%; cytotoxicity at 10 ug/mL [18]: 4.9%; cytotoxicity at 3 ug/mL [19]: 2.4%; cytotoxicity at 3 ug/mL [20]: 0%; cytotoxicity at 30 ug/mL [21]: 10.1%
O=C1CSC(c2ccccc2)N1c1ccc(Cl)cc1 (stereo unspecified) | 17.3 (≈ 59.7 µM) | 28.7 (≈ 99 µM) | 0 | 94.3 | > 100 | > 100 | 13.4 | -11.3 | > 30 | > 30 | > 100 | > 100 | 11.6 | > 100 | > 100 | 1.3 | 24.2 | -17 | 38 | 11.2 | IC50 (Escherichia coli): > 30 µg/mL; MIC (Escherichia coli): > 30 µg/mL; IC50 (Bacillus subtilis): > 30 µg/mL; MIC (Bacillus subtilis): > 30 µg/mL; IC50 (Staphylococcus aureus): > 30 µg/mL; MIC (Staphylococcus aureus): > 30 µg/mL; IC50 (Pseudomonas): > 30 µg/mL; MIC (Pseudomonas): > 30 µg/mL; cytotoxicity at 10 ug/mL [17]: 19.5%; cytotoxicity at 10 ug/mL [18]: 30%; cytotoxicity at 3 ug/mL [19]: 19%; cytotoxicity at 3 ug/mL [20]: -12.3%; cytotoxicity at 30 ug/mL [21]: 32.8%
O=C1CSC(c2ccccc2)N1c1ccc(F)cc1 (stereo unspecified) | 19.8 (≈ 72.4 µM) | > 30 | 0 | 70 | > 100 | > 100 | 11 | 19.5 | > 30 | > 30 | > 100 | > 100 | 31 | > 100 | > 100 | 27.7 | 31.4 | 7.5 | 7.5 | -3.9 | IC50 (Escherichia coli): > 30 µg/mL; MIC (Escherichia coli): > 30 µg/mL; IC50 (Bacillus subtilis): > 30 µg/mL; MIC (Bacillus subtilis): > 30 µg/mL; IC50 (Staphylococcus aureus): > 30 µg/mL; MIC (Staphylococcus aureus): > 30 µg/mL; IC50 (Pseudomonas): > 30 µg/mL; MIC (Pseudomonas): > 30 µg/mL; cytotoxicity at 10 ug/mL [17]: 0%; cytotoxicity at 10 ug/mL [18]: 5.3%; cytotoxicity at 3 ug/mL [19]: -5.4%; cytotoxicity at 3 ug/mL [20]: -13.4%; cytotoxicity at 30 ug/mL [21]: -6%
O=C1CSC(c2ccccc2)N1c1ccccc1 (stereo unspecified) | > 30 | > 30 | 0 | 34.5 | > 100 | > 100 | 0 | 15.4 | 20.7 (≈ 81.1 µM) | > 30 | > 100 | > 100 | 80.7 | > 100 | > 100 | 14.2 | 31.7 | 5 | 31.7 | -4.2 | IC50 (Escherichia coli): > 30 µg/mL; MIC (Escherichia coli): > 30 µg/mL; IC50 (Bacillus subtilis): > 30 µg/mL; MIC (Bacillus subtilis): > 30 µg/mL; IC50 (Staphylococcus aureus): > 30 µg/mL; MIC (Staphylococcus aureus): > 30 µg/mL; IC50 (Pseudomonas): > 30 µg/mL; MIC (Pseudomonas): > 30 µg/mL; cytotoxicity at 10 ug/mL [17]: 5.3%; cytotoxicity at 10 ug/mL [18]: 3.2%; cytotoxicity at 3 ug/mL [19]: 3.3%; cytotoxicity at 3 ug/mL [20]: 0%; cytotoxicity at 30 ug/mL [21]: 16.8%
COc1ccc(N2C(=O)CSC2c2ccccc2)cc1 (stereo unspecified) | 2.2 (≈ 7.71 µM) | 24 (≈ 84.1 µM) | 0 | 91.4 | > 100 | > 100 | 4.4 | 30.2 | > 30 | > 30 | > 100 | > 100 | 71.9 | > 100 | > 100 | -0.1 | 86 | 65.4 | 15.4 | -10 | IC50 (Escherichia coli): > 30 µg/mL; MIC (Escherichia coli): > 30 µg/mL; IC50 (Bacillus subtilis): > 30 µg/mL; MIC (Bacillus subtilis): > 30 µg/mL; IC50 (Staphylococcus aureus): > 30 µg/mL; MIC (Staphylococcus aureus): > 30 µg/mL; IC50 (Pseudomonas): > 30 µg/mL; MIC (Pseudomonas): > 30 µg/mL; cytotoxicity at 10 ug/mL [17]: 8.9%; cytotoxicity at 10 ug/mL [18]: 7.2%; cytotoxicity at 3 ug/mL [19]: -6.1%; cytotoxicity at 3 ug/mL [20]: -0.1%; cytotoxicity at 30 ug/mL [21]: 10.2%
CC(=O)O[C@H]1C(=O)[C@@]2(C)[C@H]([C@H](OC(=O)c3ccccc3)[C@]3(O)C[C@H](OC(=O)[C@H](O)[C@@H](NC(=O)c4ccccc4)c4ccccc4)C(C)=C1C3(C)C)[C@]1(OC(C)=O)CO[C@@H]1C[C@@H]2O [PACLITAXEL] | – | – | – | – | 5.21 (≈ 6.1 µM) | 0.026 (≈ 0.0304 µM) | – | – | – | – | 0.039 (≈ 0.0457 µM) | < 0.004 | – | 0.075 (≈ 0.0878 µM) | 0.0039 (≈ 0.00457 µM) | – | – | – | – | – | –
O=C1CSC(c2ccc([N+](=O)[O-])cc2)N1c1ccccc1 (stereo unspecified) | > 30 | > 30 | 6.7 | -8.8 | – | – | 8.8 | 12.5 | > 30 | > 30 | – | – | 14.4 | – | – | 17.8 | -30.4 | -17.1 | 52.6 | 47 | cytotoxicity at 10 ug/mL [17]: 49.9%; cytotoxicity at 10 ug/mL [18]: 9%; cytotoxicity at 3 ug/mL [19]: -11.5%; cytotoxicity at 3 ug/mL [20]: 0.3%; cytotoxicity at 30 ug/mL [21]: 29.3%

From ChEMBL document CHEMBL3779788, “Facile synthesis of 1,3-thiazolidin-4-ones as antitubercular agents” (Bioorg Med Chem Lett, 2016)
